Structures can show the parent of a compound that is named as a salt.
Molecular target: muscarinic receptors in the rat central nervous system
Test: Binding affinity at muscarinic receptors in the rat central nervous system, [^3 H]-QNB IC50
Conditions: mean from one to three experiments, each in triplicate
From the text: Binding affinities and agonist activity in a series of
amidine derivatives at muscarinic receptors in the rat
central nervous system. Data represent the mean from one
to three experiments, each performed in triplicate.

Compound CN(C)NC(=O)C1CN=C(N)NC1 (stereo not shown) [CDD-0126-A, 2-Amino-1,4,5,6-tetrahydropyrimidine-5-carboxylic-(N,N-dimethyl)hydrazide HCl] has an IC50 of 50 µM.
